According to patent US12202845:

Details: from CCn1c(-c2cccnc2[C@H](C)OC)c(CC(C)(C)CO)c2cc(C3=CCCN(CC(NC(=O)OC(C)(C)C)C(=O)N4CCC[C@@H](C(=O)O)N4)C3)ccc21; ester bond; 18-membered ring; EDCI.HCl/HOBt/DIPEA; DCM; 7.1 mM; 30.0 °C; 16.0 h

## CCn1c(-c2cccnc2[C@H](C)OC)c2c3cc(ccc31)C1=CCCN(C1)CC(NC(=O)OC(C)(C)C)C(=O)N1CCC[C@H](N1)C(=O)OCC(C)(C)C2 (stereo partly shown)
  ring closure, isolated yield: 40%
